# Measurements reported in patent publication US20090005444A1, “USE OF PROPOFOL PRODRUGS FOR TREATING ALCOHOL WITHDRAWAL, CENTRAL PAIN, ANXIETY OR PRURITUS” (XenoPort, Inc., priority 2007, published 2009).
# Legend:
# [1] = system: rats; experiment: Acute toxicity study, single oral dose in rats; format: in vivo
# Method: Acute toxicity studies in rats were undertaken to assess the tolerance of a single oral dose of compound (2) formulated in water. […] Complete recovery from hypoactivity, sedation, and anesthesia occurred in all rats within about 8 hours after dosing. Doses above about 1552 mg-eq/kg (about 800 mg-eq/kg of propofol) were not tested.
# [2] = system: male beagle dogs; experiment: Acute toxicity study, single oral dose in dogs; format: in vivo
# Method: Acute toxicity studies were also performed by orally administering a single dose of compound (2) formulated in water to groups of male beagle dogs at doses from about 25 mg-eq/kg to about 150 mg-eq/kg propofol.
# [3] = system: male rats; experiment: Multiple dose study in rats, oral once a day for five days; format: in vivo; conditions: oral gavage once a day for five days, 49 to 97 mg-eq/kg propofol
# Method: Multiple dose studies in rats were performed by orally administering compound (2) formulated in water to groups of male rats at doses of 49 mg-eq/kg to 97 mg-eq/kg propofol for a period of five days, by oral gavages administered once a day.
# [4] = oral dosing in rats; cited from earlier work
# [5] = system: delirium tremens; conditions: sedative and subsedative doses of propofol; cited from earlier work
# [6] = system: central pain; conditions: subanesthetic dose 0.2 mg/kg IV; cited from earlier work
# [7] = system: anxiety; conditions: animal studies; cited from earlier work
# [8] = system: pruritus; conditions: subhypnotic doses; cholestasis and spinal morphine administration; cited from earlier work
# [9] = rats, single oral dose about 49 to about 388 mg-eq/kg propofol
# [10] = rats, single oral dose about 582 to about 970 mg-eq/kg propofol
# [11] = rats, single oral dose about 1164 to about 1552 mg-eq/kg propofol
SMILES,"time to complete recovery from hypoactivity, sedation, and anesthesia ([1]; all rats, after single oral dose)","tolerance of a single oral dose ([1]; rats, formulated in water, about 49 to about 1552 mg-eq/kg propofol)","onset of transient hypoactivity after dose [1, 9]","transient hypoactivity maintained, time post dose [1, 9]","onset of sedation after dosing [1, 10]","sedation continued, time post dose [1, 10]","anesthesia continued, time post dose [1, 11]","onset of anesthesia after dosing [1, 11]","tolerance of a single oral dose ([2]; formulated in water, about 25 to about 150 mg-eq/kg propofol)",sedation or anesthesia ([2]; single oral dose about 25 to about 150 mg-eq/kg propofol),adverse effects [3],sedation or anesthesia [3],tolerance of multiple oral doses [3],administered drug undergoing first pass metabolism [4],effect on symptoms of delirium tremens [5],effect on SCIP and CPSP central pain [6],anxiolytic effect [7],effect on pruritus [8]
"CC(C)c1cccc(C(C)C)c1OC(=O)OC[C@H](N)C(=O)O [compound (2), (S)-2-amino-3-(2,6-diisopropyl-phenoxycarbonyloxy)-propanoic acid]",≤ 8 h,well tolerated,≤ 30 min,up to 4 hours,≤ 1.5 h,up to 4 hours,up to 2 hours,≤ 1 h,well tolerated,No sedation or anesthesia was observed,No adverse effects were observed,No sedation or anesthesia was observed,well tolerated,,,,,
"CC(C)c1cccc(C(C)C)c1O [propofol, 2,6-diisopropylphenol]",,,,,,,,,,,,,,approximately 90%,effective in reducing the symptoms of delirium tremens,effective in reducing both SCIP and CPSP central pain,exerts an anxiolytic effect independent of any sedative effect,effective in controlling pruritus associated with cholestasis and spinal morphine administration
